# Data: patent publication US9457033B2, “Steroid alkaloids and uses thereof as antimicrobial agents against electron transport-deficient microbes and as potentiators for antimicrobial agents against pathogenic bacteria” (priority 2011, dated 2016)
# Like-named read-outs stand apart in the source and are kept apart here.
# What was measured:
# S. aureus ATCC 29213 [1] = experiment: MIC, microdilution in CAMHB 24 h, with or without tomatidine/compound; type: cell-based, Staphylococcus aureus; conditions: for MIC: Staphylococcus aureus
# S. aureus Newman = experiment: MIC, microdilution in CAMHB 24 h; type: cell-based, Staphylococcus aureus; conditions: Newman; for MIC: Staphylococcus aureus
# S. aureus Newbould = experiment: MIC, microdilution in CAMHB 24 h; type: cell-based, Staphylococcus aureus; conditions: Newbould; for MIC: Staphylococcus aureus
# S. aureus 8325-4 = experiment: MIC, microdilution in CAMHB 24 h; type: cell-based, Staphylococcus aureus; conditions: 8325-4; for MIC: Staphylococcus aureus, 83254
# S. aureus CF2A-L = experiment: MIC, microdilution in CAMHB 24 h; type: cell-based; conditions: CF2A-L; for MIC: Staphylococcus aureus, CF2AL
# S. aureus ATCC 29213 [2] = experiment: Time-kill experiments, aminoglycoside alone or with tomatidine (FIGS. 8-10); conditions: alone at ≧1×MIC (1 μg/ml); regrowth observed within 24 h; FIG. 9
# S. aureus CF6B-L = experiment: MIC, microdilution in CAMHB 24 h; type: cell-based, Staphylococcus aureus; conditions: CF6B-L; for MIC: Staphylococcus aureus, CF6BL
# S. aureus CF8E-L = experiment: MIC, microdilution in CAMHB 24 h; type: cell-based, Staphylococcus aureus; conditions: CF8E-L; for MIC: Staphylococcus aureus, CF8EL
# S. aureus ATCC 29213 [3] = experiment: Checkerboard assay, aminoglycoside and tomatidine; type: cell-based, Staphylococcus aureus; conditions: for MIC: Staphylococcus aureus, ATCC29213, checkerboard
# S. aureus Sa228c = experiment: MIC, microdilution in CAMHB 24 h; type: cell-based, Staphylococcus aureus; conditions: for MIC: Staphylococcus aureus, SA228C
# S. aureus ATCC BAA-41 = experiment: MIC, microdilution in CAMHB 24 h; type: cell-based, Staphylococcus aureus; conditions: for MIC: Staphylococcus aureus
# S. aureus CF9A-L = experiment: MIC, microdilution in CAMHB 24 h; type: cell-based, Staphylococcus aureus; conditions: CF9A-L; for MIC: Staphylococcus aureus
# S. aureus CF7A-L = experiment: MIC, microdilution in CAMHB 24 h; type: cell-based, Staphylococcus aureus; conditions: CF7A-L; for MIC: Staphylococcus aureus
# S. aureus MRSA COL = experiment: MIC, microdilution in CAMHB 24 h; type: cell-based, Staphylococcus aureus; conditions: MRSA COL; for MIC: Staphylococcus aureus
# S. aureus Mu50 = experiment: MIC, microdilution in CAMHB 24 h; type: cell-based, Staphylococcus aureus; conditions: for MIC: Staphylococcus aureus
# S. aureus CF1A-L = experiment: MIC, microdilution in CAMHB 24 h; type: cell-based, Staphylococcus aureus; conditions: CF1A-L; for MIC: Staphylococcus aureus, CF1AL
# S. aureus N315 = experiment: microbe, parasite or virus in culture; type: cell-based, Staphylococcus aureus; conditions: for MIC: Staphylococcus aureus
# S. aureus CF35A-L = experiment: MIC, microdilution in CAMHB 24 h; type: cell-based, Staphylococcus aureus; conditions: CF35A-L; for MIC: Staphylococcus aureus
# S. aureus SHY97-3906 = experiment: MIC, microdilution in CAMHB 24 h; type: cell-based, Staphylococcus aureus; conditions: for MIC: Staphylococcus aureus, SHY973906
# [4] = 8 μg/ml of tomatidine, read-out: MIC +TO
# [5] = absence of tomatidine, read-out: MIC −TO
# [6] = Human (CF lungs), read-out: MIC
# [7] = Human (CF lungs), MRSA, read-out: MIC
smiles,measurement,setting,value
"NC[C@H]1O[C@H](O[C@H]2[C@H](O)[C@@H](O[C@H]3O[C@H](CO)[C@@H](O)[C@H](N)[C@H]3O)[C@H](N)C[C@@H]2N)[C@H](N)C[C@@H]1O [Tobramycin, tobramycin]",Fold (−TO/+TO),"S. aureus ATCC 29213 [1]; ATCC 29123, 8 μg/ml of tomatidine",4-16 fold
same,Fold (−TO/+TO),"S. aureus ATCC 29213 [1]; ATCC 29213, tomatidine at 8 μg/ml",4-8 fold
same,MIC,"S. aureus ATCC 29213 [1]; ATCC 29123 / ATCC 29213, ATCC 29123, 8 μg/ml of tomatidine, read-out: MIC +TO",0.03 to 0.06 µg/mL
same,MIC,"S. aureus ATCC 29213 [1]; ATCC 29123 / ATCC 29213, ATCC 29123, absence of tomatidine, read-out: MIC −TO",0.25 to 0.5 µg/mL
same,MIC,"S. aureus ATCC 29213 [1]; ATCC29213, ATCC 29213, Human (SSTI), read-out: MIC",0.25 to 0.5 µg/mL
same,MIC,"S. aureus ATCC 29213 [1]; ATCC29213, ATCC 29213, absence of tomatidine, read-out: MIC −TO",0.25 to 0.5 µg/mL
same,MIC,"S. aureus ATCC 29213 [1]; ATCC29213, ATCC 29213, presence of tomatidine at 8 μg/ml, read-out: MIC +TO",0.06 µg/mL
same,Fold (−TO/+TO),S. aureus Newman; 8 μg/ml of tomatidine,2-8 fold
same,MIC,S. aureus Newman; [4],0.06 to 0.12 µg/mL
same,MIC,"S. aureus Newman; Human (Osteo), read-out: MIC",0.25 to 0.5 µg/mL
same,MIC,S. aureus Newman; [5],0.25 to 0.5 µg/mL
same,Fold (−TO/+TO),S. aureus Newbould; 8 μg/ml of tomatidine,8 fold
same,MIC,S. aureus Newbould; [4],0.06 to 0.12 µg/mL
same,MIC,"S. aureus Newbould; Cow (mastitis), read-out: MIC",0.5 to 1 µg/mL
same,MIC,S. aureus Newbould; [5],0.5 to 1 µg/mL
same,Fold (−TO/+TO),S. aureus 8325-4; 8 μg/ml of tomatidine,4 fold
same,MIC,S. aureus 8325-4; [4],0.03 to 0.06 µg/mL
same,MIC,"S. aureus 8325-4; Laboratory strain, read-out: MIC",0.12 to 0.25 µg/mL
same,MIC,S. aureus 8325-4; [5],0.12 to 0.25 µg/mL
same,Fold (−TO/+TO),S. aureus CF2A-L; 8 μg/ml of tomatidine,8-16 fold
same,MIC,S. aureus CF2A-L; [4],0.06 to 0.12 µg/mL
same,MIC,S. aureus CF2A-L; [6],1 µg/mL
same,MIC,S. aureus CF2A-L; [5],1 µg/mL
same,time-kill activity alone,S. aureus ATCC 29213 [2],bactericidal
same,Fold (−TO/+TO),S. aureus CF6B-L; 8 μg/ml of tomatidine,4-16 fold
same,MIC,"S. aureus CF6B-L; aac(6′)-aph(2″), 8 μg/ml of tomatidine, read-out: MIC +TO",16 to 64 µg/mL
same,MIC,"S. aureus CF6B-L; aac(6′)-aph(2″), absence of tomatidine, read-out: MIC −TO",256 µg/mL
same,MIC,S. aureus CF6B-L; [6],256 µg/mL
same,Fold (−TO/+TO),S. aureus CF8E-L; 8 μg/ml of tomatidine,4 fold
same,MIC,S. aureus CF8E-L; [4],0.25 µg/mL
same,MIC,S. aureus CF8E-L; [6],1 µg/mL
same,MIC,S. aureus CF8E-L; [5],1 µg/mL
same,MIC,S. aureus ATCC 29213 [3]; tomatidine 0 μg/ml,0.25 to 0.5 µg/mL
same,MIC,S. aureus ATCC 29213 [3]; tomatidine 0.06 μg/ml,0.25 µg/mL
same,MIC,S. aureus ATCC 29213 [3]; tomatidine 0.12 μg/ml,0.03 to 0.12 µg/mL
same,MIC,S. aureus ATCC 29213 [3]; tomatidine 0.25 μg/ml,0.03 to 0.06 µg/mL
same,MIC,S. aureus ATCC 29213 [3]; tomatidine 0.5 μg/ml,0.03 µg/mL
same,MIC,S. aureus ATCC 29213 [3]; tomatidine 1 μg/ml,0.03 to 0.06 µg/mL
same,MIC,S. aureus ATCC 29213 [3]; tomatidine 2 μg/ml,0.03 to 0.06 µg/mL
same,MIC,S. aureus ATCC 29213 [3]; tomatidine 4 μg/ml,0.03 to 0.06 µg/mL
same,MIC,S. aureus ATCC 29213 [3]; tomatidine 8 μg/ml,0.06 µg/mL
same,FIC index,"S. aureus ATCC 29213 [3]; aminoglycoside with tomatidine, tomatidine MIC considered 32 μg/ml, values overestimated",≦0.133
same,Fold (−TO/+TO),"S. aureus Sa228c; Sa228c, 8 μg/ml of tomatidine",4-8 fold
same,MIC,S. aureus Sa228c; read-out: MIC +TO,128 to 256 µg/mL
same,MIC,S. aureus Sa228c; read-out: MIC −TO,1020 µg/mL
same,Fold (−TO/+TO),"S. aureus ATCC BAA-41; ATCC BAA-41, 8 μg/ml of tomatidine",4 fold
same,MIC,"S. aureus ATCC BAA-41; ATCC BAA-41 / MRSA, ATCC BAA-41, Human (HA), MRSA, read-out: MIC",512 µg/mL
same,MIC,"S. aureus ATCC BAA-41; ATCCBAA41, ATCC BAA-41, ant(4′)-Ia, 8 μg/ml of tomatidine, read-out: MIC +TO",128 µg/mL
same,MIC,"S. aureus ATCC BAA-41; ATCCBAA41, ATCC BAA-41, ant(4′)-Ia, absence of tomatidine, read-out: MIC −TO",512 µg/mL
same,Fold (−TO/+TO),S. aureus CF9A-L; 8 μg/ml of tomatidine,4-8 fold
same,MIC,"S. aureus CF9A-L; CF9AL, ant(4′)-Ia, 8 μg/ml of tomatidine, read-out: MIC +TO",64 to 256 µg/mL
same,MIC,"S. aureus CF9A-L; CF9AL, ant(4′)-Ia, absence of tomatidine, read-out: MIC −TO",512 to 1020 µg/mL
same,MIC,S. aureus CF9A-L; [7],512 to 1020 µg/mL
same,Fold (−TO/+TO),S. aureus CF7A-L; 8 μg/ml of tomatidine,2-8 fold
same,MIC,"S. aureus CF7A-L; CF7AL, ant(4′)-Ia, 8 μg/ml of tomatidine, read-out: MIC +TO",128 to 512 µg/mL
same,MIC,"S. aureus CF7A-L; CF7AL, ant(4′)-Ia, absence of tomatidine, read-out: MIC −TO",1020 µg/mL
same,MIC,S. aureus CF7A-L; [7],1020 µg/mL
same,Fold (−TO/+TO),S. aureus MRSA COL; 8 μg/ml of tomatidine,8-16 fold
same,MIC,S. aureus MRSA COL; [4],0.06 µg/mL
same,MIC,"S. aureus MRSA COL; Human (SSTI), read-out: MIC",0.5 to 1 µg/mL
same,MIC,S. aureus MRSA COL; [5],0.5 to 1 µg/mL
same,Fold (−TO/+TO),"S. aureus Mu50; Mu50, 8 μg/ml of tomatidine",8 fold
same,MIC,"S. aureus Mu50; Mu50, aac(6′)-aph(2″), ant(4′)-Ia, 8 μg/ml of tomatidine, read-out: MIC +TO",128 µg/mL
same,MIC,"S. aureus Mu50; Mu50, aac(6′)-aph(2″), ant(4′)-Ia, absence of tomatidine, read-out: MIC −TO",1020 µg/mL
same,MIC,"S. aureus Mu50; Mu50, Human (SSTI), MRSA, VISA, read-out: MIC",1020 µg/mL
same,Fold (−TO/+TO),S. aureus CF1A-L; 8 μg/ml of tomatidine,4-16 fold
same,MIC,S. aureus CF1A-L; [4],0.06 to 0.25 µg/mL
same,MIC,S. aureus CF1A-L; [6],1 µg/mL
same,MIC,S. aureus CF1A-L; [5],1 µg/mL
same,Fold (−TO/+TO),"S. aureus N315; N315, 8 μg/ml of tomatidine",2-4 fold
same,MIC,S. aureus N315; MRSA,512 µg/mL
same,MIC,"S. aureus N315; N315, read-out: MIC +TO",128 to 256 µg/mL
same,MIC,"S. aureus N315; N315, read-out: MIC −TO",512 µg/mL
same,Fold (−TO/+TO),S. aureus CF35A-L; 8 μg/ml of tomatidine,8-16 fold
same,MIC,"S. aureus CF35A-L; CF35AL, 8 μg/ml of tomatidine, read-out: MIC +TO",0.06 µg/mL
same,MIC,"S. aureus CF35A-L; CF35AL, absence of tomatidine, read-out: MIC −TO",0.5 to 1 µg/mL
same,MIC,S. aureus CF35A-L; [7],0.5 to 1 µg/mL
same,Fold (−TO/+TO),"S. aureus SHY97-3906; SHY-3906, 8 μg/ml of tomatidine",8 fold
same,MIC,"S. aureus SHY97-3906; SHY97-3906, Cow (mastitis), read-out: MIC",0.25 µg/mL
same,MIC,"S. aureus SHY97-3906; SHY-3906, 8 μg/ml of tomatidine, read-out: MIC +TO",0.03 µg/mL
same,MIC,"S. aureus SHY97-3906; SHY-3906, absence of tomatidine, read-out: MIC −TO",0.25 µg/mL
